Results reported in patent US20080161305A1, “C-Met Modulators and Methods of Use” (EXELIXIS, INC., priority 2005, published 2008).
pIC50: −log10 of the molar value.

What was measured:
Type in all cases: biochemical
c-Kit kinase = c-Kit kinase (Homo sapiens, UniProt P10721); test: c-Kit AlphaScreen assay
Procedure: (§1) Kinase activity and compound inhibition are investigated using one or more of the three assay formats described below. The ATP concentrations for each assay are selected to be close to the Michaelis-Menten constant (KM) for each individual kinase. Dose-response experiments are performed at 10 different inhibitor concentrations in a 384-well plate format. The data are fitted to the following four-parameter equation:
(§2) Y=Min+(Max−Min)/(1+(X/IC50)̂H)
(§3) where Y is the observed signal, X is the inhibitor concentration, Min is the background signal in the absence of enzyme (0% enzyme activity), Max is the signal in the absence of inhibitor (100% enzyme activity), IC50 is the inhibitor concentration at 50% enzyme inhibition and H represents the empirical Hill's slope to measure the cooperativity. Typically H is close to unity. c-Met Assay
c-Kit biochemical activity was assessed using AlphaScreen™ (Perkin Elmer) technology, described above. Test compounds, ATP, biotinylated poly(Glu, Tyr) and c-Kit kinase were combined in a volume of 20 μL in a 384-well white, medium binding microtiter plate (Greiner). Reaction mixtures were incubated for 1 hr at ambient temperature. […] After 16 hr incubation at ambient temperature plates were read using an AlphaQuest reader (Perkin Elmer).

[1] = biological target: T1, Flt-3 (baculovirus expressed human Flt-3 kinase domain R571-S993) (Homo sapiens, UniProt P36888); test: flt-3 Luciferase-Coupled Chemiluminescent Kinase assay (LCCA); settings: 5 μM ATP, 5 nM Flt-3; read-out: flt3 IC50
T1 construct: human Flt-3 kinase domain R571-S993; made in house
T1 sequence (P36888 571-993): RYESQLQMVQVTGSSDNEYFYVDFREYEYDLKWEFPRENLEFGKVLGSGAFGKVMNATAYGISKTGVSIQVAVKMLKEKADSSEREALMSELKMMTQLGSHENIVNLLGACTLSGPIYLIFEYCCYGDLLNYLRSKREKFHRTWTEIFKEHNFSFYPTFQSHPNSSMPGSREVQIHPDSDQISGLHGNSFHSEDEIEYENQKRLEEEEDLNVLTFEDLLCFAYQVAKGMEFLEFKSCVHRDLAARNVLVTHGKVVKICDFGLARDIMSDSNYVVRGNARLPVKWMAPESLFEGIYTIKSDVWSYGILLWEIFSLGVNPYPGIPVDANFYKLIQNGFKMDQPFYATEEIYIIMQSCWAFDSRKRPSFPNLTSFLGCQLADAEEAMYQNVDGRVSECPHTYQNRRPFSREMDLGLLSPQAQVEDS
Procedure: as §1, §2, §3
Biochemical activity for flt-3 was assessed using a Luciferase-Coupled Chemiluminescent Kinase assay (LCCA) format. Kinase activity was measured as the percent ATP remaining following the kinase reaction. Remaining ATP was detected by luciferase-luciferin-coupled chemiluminescence. […] The mixture is incubated at ambient temperature for 3 hours after which 20 uL luciferase-luciferin mix is added and the chemiluminescent signal read using a Wallac Victor^2 reader. […]

[2] = biological target: T2, KDR (baculovirus expressed human KDR kinase domain D807-V1356) (Homo sapiens, UniProt P35968); test: KDR Luciferase-Coupled Chemiluminescent Kinase assay (LCCA); settings: 3 μM ATP, 5 nM KDR
T2 construct: human KDR kinase domain D807-V1356; made in house
Procedure: as §1, §2, §3
KDR biochemical activity was assessed using a Luciferase-Coupled Chemiluminescent Kinase assay (LCCA) format. Kinase activity was measured as the percent ATP remaining following the kinase reaction. Remaining ATP was detected by luciferase-luciferin-coupled chemiluminescence. […] The mixture is incubated at ambient temperature for 4 hours after which 20 uL luciferase-luciferin mix is added and the chemiluminescent signal read using a Wallac Victor^2 reader. […]

[3] = biological target: c-Met (baculovirus expressed human c-Met kinase domain P948-S1343) (Homo sapiens, UniProt P08581); test: c-Met Luciferase-Coupled Chemiluminescent Kinase assay (LCCA); settings: 1 μM ATP, 10 nM c-Met
Procedure: as §1, §2, §3
c-Met biochemical activity was assessed using a Luciferase-Coupled Chemiluminescent Kinase assay (LCCA) format as described above. Again, kinase activity was measured as the percent ATP remaining following the kinase reaction. Remaining ATP was detected by luciferase-luciferin-coupled chemiluminescence. […] The mixture is incubated at ambient temperature for 2 hours after which 20 uL luciferase-luciferin mix is added and the chemiluminescent signal read using a Wallac Victor^2 reader. […]

[4] = biological target: T3, Flt-4 (baculovirus expressed human Flt-4 kinase domain D725-R1298) (Homo sapiens, UniProt P35916); test: flt-4 Alphascreen Tyrosine Kinase assay; settings: 5 μM ATP, 1 nM Flt-4; read-out: flt4 IC50
T3 construct: human Flt-4 kinase domain D725-R1298; made in house
Procedure: as §1, §2, §3
Biochemical activity for flt-4 was assessed using an Alphascreen Tyrosine Kinase protocol. AlphaScreen™ (Perkin Elmer) technology is a proximity assay employing microparticles. […] Substrate phosphorylation was measured by addition of donor/acceptor beads by chemiluminescence following donor-acceptor bead complex formation. […] After 2-16 hr incubation at ambient temperature plates were read using an AlphaQuest reader (Perkin Elmer). IC50 values correlate well with those determined by radiometric assays.

Measured: pIC50

Chain of c-Kit kinase (P10721 26-976): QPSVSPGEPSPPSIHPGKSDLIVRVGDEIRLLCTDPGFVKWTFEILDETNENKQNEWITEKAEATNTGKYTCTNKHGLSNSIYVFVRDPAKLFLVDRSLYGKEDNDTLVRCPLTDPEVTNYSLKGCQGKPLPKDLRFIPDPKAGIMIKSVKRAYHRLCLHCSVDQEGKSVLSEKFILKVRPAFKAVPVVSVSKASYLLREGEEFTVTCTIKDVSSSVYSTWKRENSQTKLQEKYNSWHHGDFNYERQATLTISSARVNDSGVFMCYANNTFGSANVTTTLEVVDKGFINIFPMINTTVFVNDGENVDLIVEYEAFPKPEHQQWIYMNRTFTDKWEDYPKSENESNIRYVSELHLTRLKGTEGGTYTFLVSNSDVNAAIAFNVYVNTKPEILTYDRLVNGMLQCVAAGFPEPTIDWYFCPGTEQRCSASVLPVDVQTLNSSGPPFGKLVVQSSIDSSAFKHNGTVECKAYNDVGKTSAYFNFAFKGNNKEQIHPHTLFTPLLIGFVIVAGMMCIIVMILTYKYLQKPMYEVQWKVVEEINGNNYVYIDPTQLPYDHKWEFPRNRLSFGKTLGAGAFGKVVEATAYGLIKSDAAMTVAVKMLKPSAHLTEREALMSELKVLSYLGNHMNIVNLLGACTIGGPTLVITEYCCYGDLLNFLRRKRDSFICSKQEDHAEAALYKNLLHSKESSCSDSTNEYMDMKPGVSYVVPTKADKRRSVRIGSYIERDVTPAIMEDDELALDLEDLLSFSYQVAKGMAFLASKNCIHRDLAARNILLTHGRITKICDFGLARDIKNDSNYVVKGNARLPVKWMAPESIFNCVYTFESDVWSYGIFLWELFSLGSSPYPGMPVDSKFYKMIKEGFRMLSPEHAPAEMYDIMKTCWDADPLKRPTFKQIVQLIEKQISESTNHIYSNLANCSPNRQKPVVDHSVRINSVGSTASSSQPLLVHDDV
T2 sequence (P35968 807-1356): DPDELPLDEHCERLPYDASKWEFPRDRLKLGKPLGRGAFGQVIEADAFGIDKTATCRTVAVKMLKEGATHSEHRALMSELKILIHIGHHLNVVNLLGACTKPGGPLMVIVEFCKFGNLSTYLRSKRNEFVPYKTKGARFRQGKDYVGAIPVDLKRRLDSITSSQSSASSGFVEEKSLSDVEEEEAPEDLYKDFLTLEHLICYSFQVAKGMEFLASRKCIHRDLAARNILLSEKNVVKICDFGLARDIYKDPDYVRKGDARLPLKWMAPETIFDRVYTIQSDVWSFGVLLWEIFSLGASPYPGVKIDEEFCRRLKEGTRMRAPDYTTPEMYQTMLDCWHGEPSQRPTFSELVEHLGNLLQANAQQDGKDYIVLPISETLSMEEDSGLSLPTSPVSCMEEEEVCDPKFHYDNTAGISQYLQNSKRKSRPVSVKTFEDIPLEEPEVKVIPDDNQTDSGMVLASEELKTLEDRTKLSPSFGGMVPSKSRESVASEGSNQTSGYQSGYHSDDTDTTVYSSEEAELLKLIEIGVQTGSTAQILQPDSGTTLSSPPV
T3 sequence (P35916 725-1298 isoform P35916-1): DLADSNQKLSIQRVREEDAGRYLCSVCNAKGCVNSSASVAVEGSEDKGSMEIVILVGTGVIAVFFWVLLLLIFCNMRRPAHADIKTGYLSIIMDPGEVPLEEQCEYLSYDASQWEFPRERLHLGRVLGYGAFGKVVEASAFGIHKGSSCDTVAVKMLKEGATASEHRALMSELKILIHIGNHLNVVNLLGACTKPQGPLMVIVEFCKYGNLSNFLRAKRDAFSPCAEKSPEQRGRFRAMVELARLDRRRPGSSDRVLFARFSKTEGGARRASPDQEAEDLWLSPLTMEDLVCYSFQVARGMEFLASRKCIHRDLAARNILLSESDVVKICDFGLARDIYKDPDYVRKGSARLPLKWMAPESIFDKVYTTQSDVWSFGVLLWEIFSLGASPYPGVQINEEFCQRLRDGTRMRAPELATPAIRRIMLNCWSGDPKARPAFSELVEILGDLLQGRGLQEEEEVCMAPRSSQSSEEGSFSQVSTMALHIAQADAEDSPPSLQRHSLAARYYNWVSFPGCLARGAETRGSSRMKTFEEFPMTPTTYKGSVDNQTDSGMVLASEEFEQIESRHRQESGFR
Chain of c-Met (baculovirus expressed human c-Met kinase domain P948-S1343) (P08581 1078-1345 limits assumed): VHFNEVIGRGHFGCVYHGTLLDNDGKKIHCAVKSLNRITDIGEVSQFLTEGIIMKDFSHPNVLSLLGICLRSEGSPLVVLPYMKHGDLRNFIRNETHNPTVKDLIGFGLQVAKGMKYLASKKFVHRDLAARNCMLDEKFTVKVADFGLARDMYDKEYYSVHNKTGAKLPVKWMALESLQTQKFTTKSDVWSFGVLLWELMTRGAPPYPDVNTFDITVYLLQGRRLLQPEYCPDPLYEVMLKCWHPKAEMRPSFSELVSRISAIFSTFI

COc1cc2c(Oc3ccc(NC(=O)C(=O)NCCc4ccc(F)cc4)cc3F)ccnc2cc1OCCCN1CCOCC1 [Entry 1, N-[3-fluoro-4-({6-(methyloxy)-7-[(3-morpholin-4-ylpropyl)oxy]quinolin-4-yl}oxy)phenyl]-N′-[2-(4-fluorophenyl)ethyl]ethanediamide]
> 7.30: all assays above
